The text below walks through data of patent US8927590B2, “Synthesis of pyrrolidine compounds” (Zealand Pharma A/S, priority 2006, dated 2015).

Molecules are shown by their SMILES. Like-named read-outs stand apart in the source and are kept apart here.

This data set is described as follows: Dynamic vapor sorption (DVS) at a series of relative humidity conditions. It counts as physicochemical. On the procedure: In some embodiments, the (2S,4R)-1-(2-aminoacetyl)-4-benzamidopyrrolidine-2-carboxylic acid hydrochloride monohydrate is characterized by dynamic vapor sorption (“DVS”). DVS data were collected using Dynamix Vapor Sorption Apparatus (DVS-1) made by Surface Measurement System Ltd. Samples were analyzed by subjecting them to a series of relative humidity (RH) conditions at 25° C. The relative humidity was scanned from about 0% to about 90%.

As to `Cl.NCC(=O)N1C[C@H](NC(=O)c2ccccc2)C[C@H]1C(=O)O` [(2S,4R)-1-(2-Aminoacetyl)-4-benzamidopyrrolidine-2-carboxylic acid hydrochloride], the “stability of the solid form to changes in humidity (DVS conclusion)” value is reported as “not stable to environmental changes in humidity”. Also, the “increase in mass when relative humidity increased from 0% RH to 90% RH” value (DVS, 25° C., first cycle, 0 to about 1200 min (FIG. 7)) stood at 21.7%.
In the case of `Cl.NCC(=O)N1C[C@H](NC(=O)c2ccccc2)C[C@H]1C(=O)O.O` [(2S,4R)-1-(2-aminoacetyl)-4-benzamidopyrrolidine-2-carboxylic acid hydrochloride monohydrate], the “reversible change of mass between 0% RH and 10% RH” value (DVS, 25° C., 0% RH to 10% RH (FIG. 6)) was “about 1.5%”. Moreover, for the setting “DVS, 25° C., 10% RH to about 70% RH (FIG. 6)”, the “mass between 10% RH and about 70% RH” value is “relatively stable mass”. Also, the “stability of the solid form to changes in humidity (DVS conclusion)” value (DVS, 25° C., RH cycled about 0% to about 90%) is “sorbed water is reversibly lost and does not appear to adversely affect the integrity of the crystalline form”. Also, the “reversible mass change between about 70% RH and 90% RH” value (DVS, 25° C., about 70% RH to 90% RH (FIG. 6)) is roughly 2.5%.
